# Measurements: patent US20250147039A1, “Compounds for complexation of rare earth elements and/or s-, p-, d- block metals, their coordination compounds, peptide conjugates, method of their preparation and use thereof” (USTAV ORGANICKE CHEMIE A BIOCHEMIE AV CR V.V.I., priority 2021, published 2025)
# Tests used:
# Type in all cases: physicochemical
# [1] = Relaxivities of Gd^III chelates, inversion recovery pulse sequence on relaxometer (0.5 T) (Chart 15); conditions: 40.0° C., 1.0 mM in aq. MOPS/NaOH buffer, pH 7.0
# [2] = Dissociation of chelates in aq. 6.0M HCl at 80° C. (acid decomplexation kinetic inertness) (Chart 17)
# [3] = Dissociation of chelates in aq. 1.0M HCl at 80° C. (acid decomplexation kinetic inertness) (Chart 18)
# [4] = Dissociation of chelates in aq. 0.1M HCl at 80° C. (acid decomplexation kinetic inertness) (Chart 19)
# [5] = Dissociation of chelates in aq. 0.1M HCl at RT (acid decomplexation kinetic inertness) (Chart 20)
# [6] = Formation of 1,5-cz-[Ln(Lig)] from Lig and Ln^III ions (metal dependent click-zip), MES/NaOH buffer pH 5.2, analytical HPLC (Chart 3)
# [7] = Formation of 1,5-cz-[Ln(Lig)] from 1,5-cz-Lig (metal dependent direct complexation) (Chart 8); conditions: pH 7.0
# [8] = Formation of 1,5-cz-[Ln(Lig)] from 1,5-cz-Lig (metal dependent direct complexation), RT and 80° C. (Chart 9); conditions: pH 7.0; for conversion to 1,5-cz-[Ln(Lig)] from 1,5-cz-Lig, Bi^III: ~4% DMSO
smiles,measurement,setting,value
O=C1C[N@@]2CC[N@]3CC[N@@](CC[N@](CC2)Cc2cccc(n2)-c2cnnn2Cc2cc(-c4ccccc4)cc(n2)C3)CC(=O)[O][Gd][O]1 [TD527],relaxivity,[1],1.48 mM⁻¹ s⁻¹
same,fraction of intact chelate,[2]; 1 month,0%
same,fraction of intact chelate,[2]; 1 week,0%
same,fraction of intact chelate,[2]; 1 hour,2%
same,fraction of intact chelate,[2]; 1 day,0%
same,fraction of intact chelate,[3]; 1 month,0%
same,fraction of intact chelate,[3]; 1 week,1%
same,fraction of intact chelate,[3]; 1 hour,98%
same,fraction of intact chelate,[3]; 1 day,58%
same,fraction of intact chelate,[4]; 1 month,82%
same,fraction of intact chelate,[4]; 1 week,95%
same,fraction of intact chelate,[4]; 1 hour,100%
same,fraction of intact chelate,[4]; 1 day,99%
same,fraction of intact chelate,[5]; 1 month,100%
same,fraction of intact chelate,[5]; 1 week,100%
same,fraction of intact chelate,[5]; 1 hour,100%
same,fraction of intact chelate,[5]; 1 day,100%
C#Cc1cccc(CN2CC[N@]3CCN(Cc4cc(-c5ccccc5)cc(CN=[N+]=[N-])n4)CC[N@@](CC2)CC(=O)[O][Gd][O]C(=O)C3)n1 [TD451],relaxivity,[1],2.39 mM⁻¹ s⁻¹
[N-]=[N+]=NCc1cc(-c2ccc(C(=O)O)cc2)cc(CN2CCN(CC(=O)O)CCN(Cc3cccc(C#CCN)n3)CCN(CC(=O)O)CC2)n1 [TD750],"conversion to 1,5-cz-[Ln(Lig)], Gd^III",[6]; after 1 hour at 80° C. (A),3%
same,"conversion to 1,5-cz-[Ln(Lig)], Gd^III",[6]; after 18 hours at 80° C. (B),9%
same,"conversion to 1,5-cz-[Ln(Lig)], Lu^III",[6]; after 1 hour at 80° C. (A),19%
same,"conversion to 1,5-cz-[Ln(Lig)], Lu^III",[6]; after 18 hours at 80° C. (B),71%
O=C(O)CN1CC[N@]2CCN(CC(=O)O)CC[N@@](CC1)Cc1cccc(n1)-c1cnnn1Cc1cc(-c3ccccc3)cc(n1)C2 [TD650],"conversion to 1,5-cz-[Ln(Lig)] from 1,5-cz-Lig, Ce^III",[7]; A: 1 hour at 80° C.,0%
same,"conversion to 1,5-cz-[Ln(Lig)] from 1,5-cz-Lig, Dy^III",[7]; A: 1 hour at 80° C.,0%
same,"conversion to 1,5-cz-[Ln(Lig)] from 1,5-cz-Lig, Er^III",[7]; A: 1 hour at 80° C.,0%
same,"conversion to 1,5-cz-[Ln(Lig)] from 1,5-cz-Lig, Eu^III",[7]; A: 1 hour at 80° C.,0%
same,"conversion to 1,5-cz-[Ln(Lig)] from 1,5-cz-Lig, Gd^III",[7]; A: 1 hour at 80° C.,0%
same,"conversion to 1,5-cz-[Ln(Lig)] from 1,5-cz-Lig, Ho^III",[7]; A: 1 hour at 80° C.,0%
same,"conversion to 1,5-cz-[Ln(Lig)] from 1,5-cz-Lig, La^III",[7]; A: 1 hour at 80° C.,0%
same,"conversion to 1,5-cz-[Ln(Lig)] from 1,5-cz-Lig, Lu^III",[7]; A: 1 hour at 80° C.,0%
same,"conversion to 1,5-cz-[Ln(Lig)] from 1,5-cz-Lig, Nd^III",[7]; A: 1 hour at 80° C.,0%
same,"conversion to 1,5-cz-[Ln(Lig)] from 1,5-cz-Lig, Pr^III",[7]; A: 1 hour at 80° C.,0%
same,"conversion to 1,5-cz-[Ln(Lig)] from 1,5-cz-Lig, Sm^III",[7]; A: 1 hour at 80° C.,0%
same,"conversion to 1,5-cz-[Ln(Lig)] from 1,5-cz-Lig, Tb^III",[7]; A: 1 hour at 80° C.,0%
same,"conversion to 1,5-cz-[Ln(Lig)] from 1,5-cz-Lig, Tm^III",[7]; A: 1 hour at 80° C.,0%
same,"conversion to 1,5-cz-[Ln(Lig)] from 1,5-cz-Lig, Yb^III",[7]; A: 1 hour at 80° C.,0%
same,"conversion to 1,5-cz-[Ln(Lig)] from 1,5-cz-Lig, Ce^III",[7]; B: 1 week at 80° C.,0%
same,"conversion to 1,5-cz-[Ln(Lig)] from 1,5-cz-Lig, Dy^III",[7]; B: 1 week at 80° C.,0%
same,"conversion to 1,5-cz-[Ln(Lig)] from 1,5-cz-Lig, Er^III",[7]; B: 1 week at 80° C.,0%
same,"conversion to 1,5-cz-[Ln(Lig)] from 1,5-cz-Lig, Eu^III",[7]; B: 1 week at 80° C.,0%
same,"conversion to 1,5-cz-[Ln(Lig)] from 1,5-cz-Lig, Gd^III",[7]; B: 1 week at 80° C.,0%
same,"conversion to 1,5-cz-[Ln(Lig)] from 1,5-cz-Lig, Ho^III",[7]; B: 1 week at 80° C.,0%
same,"conversion to 1,5-cz-[Ln(Lig)] from 1,5-cz-Lig, La^III",[7]; B: 1 week at 80° C.,0%
same,"conversion to 1,5-cz-[Ln(Lig)] from 1,5-cz-Lig, Lu^III",[7]; B: 1 week at 80° C.,0%
same,"conversion to 1,5-cz-[Ln(Lig)] from 1,5-cz-Lig, Nd^III",[7]; B: 1 week at 80° C.,0%
same,"conversion to 1,5-cz-[Ln(Lig)] from 1,5-cz-Lig, Pr^III",[7]; B: 1 week at 80° C.,0%
same,"conversion to 1,5-cz-[Ln(Lig)] from 1,5-cz-Lig, Sm^III",[7]; B: 1 week at 80° C.,0%
same,"conversion to 1,5-cz-[Ln(Lig)] from 1,5-cz-Lig, Tb^III",[7]; B: 1 week at 80° C.,0%
same,"conversion to 1,5-cz-[Ln(Lig)] from 1,5-cz-Lig, Tm^III",[7]; B: 1 week at 80° C.,0%
same,"conversion to 1,5-cz-[Ln(Lig)] from 1,5-cz-Lig, Yb^III",[7]; B: 1 week at 80° C.,0%
same,"conversion to 1,5-cz-[Ln(Lig)] from 1,5-cz-Lig, Gd^III",[7]; C: ~6 months at 80° C.,0%
same,"conversion to 1,5-cz-[Ln(Lig)] from 1,5-cz-Lig, Lu^III",[7]; C: ~6 months at 80° C.,0%
same,"conversion to 1,5-cz-[Ln(Lig)] from 1,5-cz-Lig, Cu^II",[8]; A: 1 min at RT,43%
same,"conversion to 1,5-cz-[Ln(Lig)] from 1,5-cz-Lig, Pb^II",[8]; A: 1 min at RT,98%
same,"conversion to 1,5-cz-[Ln(Lig)] from 1,5-cz-Lig, Ca^II",[8]; B: 1 hour at RT,0%
same,"conversion to 1,5-cz-[Ln(Lig)] from 1,5-cz-Lig, Cd^II",[8]; B: 1 hour at RT,58%
same,"conversion to 1,5-cz-[Ln(Lig)] from 1,5-cz-Lig, Cu^II",[8]; B: 1 hour at RT,47%
same,"conversion to 1,5-cz-[Ln(Lig)] from 1,5-cz-Lig, Ni^II",[8]; B: 1 hour at RT,0%
same,"conversion to 1,5-cz-[Ln(Lig)] from 1,5-cz-Lig, Pb^II",[8]; B: 1 hour at RT,99%
same,"conversion to 1,5-cz-[Ln(Lig)] from 1,5-cz-Lig, Zn^II",[8]; B: 1 hour at RT,59%
same,"conversion to 1,5-cz-[Ln(Lig)] from 1,5-cz-Lig, Bi^III",[8]; B: 1 hour at RT,2%
same,"conversion to 1,5-cz-[Ln(Lig)] from 1,5-cz-Lig, Ca^II",[8]; C: 1 hour at 80° C.,23%
same,"conversion to 1,5-cz-[Ln(Lig)] from 1,5-cz-Lig, Cd^II",[8]; C: 1 hour at 80° C.,98%
same,"conversion to 1,5-cz-[Ln(Lig)] from 1,5-cz-Lig, Cu^II",[8]; C: 1 hour at 80° C.,49%
same,"conversion to 1,5-cz-[Ln(Lig)] from 1,5-cz-Lig, Ni^II",[8]; C: 1 hour at 80° C.,9%
same,"conversion to 1,5-cz-[Ln(Lig)] from 1,5-cz-Lig, Pb^II",[8]; C: 1 hour at 80° C.,98%
same,"conversion to 1,5-cz-[Ln(Lig)] from 1,5-cz-Lig, Zn^II",[8]; C: 1 hour at 80° C.,91%
same,"conversion to 1,5-cz-[Ln(Lig)] from 1,5-cz-Lig, Bi^III",[8]; C: 1 hour at 80° C.,96%
same,"conversion to 1,5-cz-[Ln(Lig)] from 1,5-cz-Lig, Ba^II",[8]; D: 1 week at 80° C.,0%
same,"conversion to 1,5-cz-[Ln(Lig)] from 1,5-cz-Lig, Ca^II",[8]; D: 1 week at 80° C.,96%
same,"conversion to 1,5-cz-[Ln(Lig)] from 1,5-cz-Lig, Cd^II",[8]; D: 1 week at 80° C.,99%
same,"conversion to 1,5-cz-[Ln(Lig)] from 1,5-cz-Lig, Cu^II",[8]; D: 1 week at 80° C.,78%
same,"conversion to 1,5-cz-[Ln(Lig)] from 1,5-cz-Lig, Ga^II",[8]; D: 1 week at 80° C.,0%
same,"conversion to 1,5-cz-[Ln(Lig)] from 1,5-cz-Lig, In^III",[8]; D: 1 week at 80° C.,0%
same,"conversion to 1,5-cz-[Ln(Lig)] from 1,5-cz-Lig, Ni^II",[8]; D: 1 week at 80° C.,11%
same,"conversion to 1,5-cz-[Ln(Lig)] from 1,5-cz-Lig, Pb^II",[8]; D: 1 week at 80° C.,98%
same,"conversion to 1,5-cz-[Ln(Lig)] from 1,5-cz-Lig, Sc^III",[8]; D: 1 week at 80° C.,0%
same,"conversion to 1,5-cz-[Ln(Lig)] from 1,5-cz-Lig, Sr^II",[8]; D: 1 week at 80° C.,0%
same,"conversion to 1,5-cz-[Ln(Lig)] from 1,5-cz-Lig, Y^III",[8]; D: 1 week at 80° C.,0%
same,"conversion to 1,5-cz-[Ln(Lig)] from 1,5-cz-Lig, Zn^II",[8]; D: 1 week at 80° C.,99%
same,"conversion to 1,5-cz-[Ln(Lig)] from 1,5-cz-Lig, Bi^III",[8]; D: 1 week at 80° C.,90%
